Reference: patent publication US7342015B2, “Indole derivatives” (H. Lundbeck A/S, priority 2001, dated 2008)

Assays:
[1] = target: T1, re-uptake of serotonin (3H-5-HT uptake into whole rat brain synaptosomes) (Rattus norvegicus, UniProt P31652); experiment: Inhibition of 3H-5-HT uptake into rat brain synaptosomes; assay type: biochemical; settings: in vitro
T1 construct: whole rat brain synaptosomes; from tissue; host or cells: whole rat brain synaptosomes
Experimental: The compounds of the invention have also been tested for their effect on re-uptake of serotonin in the following test:
Inhibition of ^3H-5-HT Uptake Into Rat Brain Synaptosomes.
Using this method, the ability of drugs to inhibit the accumulation of ^3H-5-HT into whole rat brain synaptosomes is determined in vitro. The assay was performed as described by Hyttel, J. Psychopharmacology 1978, 60, 13.

cloned 5-HT1A receptors [2] = target: T2, cloned 5-HT1A receptors (Homo sapiens, UniProt P08908); experiment: 5-HT1A antagonistic activity: antagonism of 5-HT induced inhibition of forskolin induced cAMP accumulation in transfected HeLa cells (HA7); assay type: cell-based; settings: cloned 5-HT1A receptors in transfected HeLa cells (HA7)
T2 construct: expressed in transfected cells; host or cells: HeLa cells (HA7)
T2 sequence (P08908 1-422): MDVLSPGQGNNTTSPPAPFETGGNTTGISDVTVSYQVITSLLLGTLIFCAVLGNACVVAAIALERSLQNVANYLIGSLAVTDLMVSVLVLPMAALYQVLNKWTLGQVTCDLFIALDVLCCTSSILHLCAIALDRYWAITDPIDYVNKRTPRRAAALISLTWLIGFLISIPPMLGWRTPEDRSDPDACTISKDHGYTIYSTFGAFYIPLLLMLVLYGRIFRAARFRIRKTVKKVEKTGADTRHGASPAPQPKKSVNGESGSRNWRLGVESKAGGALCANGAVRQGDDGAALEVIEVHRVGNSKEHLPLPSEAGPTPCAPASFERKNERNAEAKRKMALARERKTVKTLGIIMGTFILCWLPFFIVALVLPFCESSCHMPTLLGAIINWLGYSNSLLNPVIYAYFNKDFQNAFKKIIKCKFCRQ
Experimental: The 5-HT1A antagonistic activity of some of the compounds of the invention has been estimated in vitro at cloned 5-HT1A receptors, stably expressed in transfected HeLa cells (HA7). In this test, 5-HT1A antagonistic activity is estimated by measuring the ability of the compounds to antagonize the 5-HT induced inhibition of forskolin induced cAMP accumulation. The assay was performed as a modification of the method described by Pauwels, P. J. et al. Biochem. Pharmacol. 1993, 45, 375.

cloned 5-HT1A receptors [3] = target: T2, cloned 5-HT1A receptors; experiment: Inhibition of 3H-5-CT binding to human 5-HT1A receptors; settings: cloned human 5-HT1A receptors in transfected HeLa cells (HA7), 15 minutes at 37° C., pH 7.7
Experimental: The affinity of the compounds of the invention to 5-HT1A receptors was determined by measuring the inhibition of binding of a radioactive ligand at 5-HT1A receptors as described in the following test:
Inhibition of ^3H-5-CT Binding to Human 5-HT1A Receptors.
By this method, the inhibition by drugs of the binding of the 5-HT1A agonist ^3H-5-carboxamido tryptamine (3H-5-CT) to cloned human 5-HT1A receptors stably expressed in transfected HeLa cells (HA7) (Fargin, A. et al. J. Biol. Chem. 1989, 264, 14848) is determined in vitro. The assay was performed as a modification of the method described by Harrington, M. A. et al. J. Pharmacol. Exp. Ther. 1994, 268, 1098. Human 5-HT1A receptors (40 μg of cell homogenate) were incubated for 15 minutes at 37° C. in 50 mM Tris buffer at pH 7.7 in the presence of ^3H-5-CT. Non-specific binding was determined by including 10 μM of metergoline. The reaction was terminated by rapid filtration through Unifilter GF/B filters on a Tomtec Cell Harvester. Filters were counted in a Packard Top Counter.

T1 sequence (P31652 whole entry): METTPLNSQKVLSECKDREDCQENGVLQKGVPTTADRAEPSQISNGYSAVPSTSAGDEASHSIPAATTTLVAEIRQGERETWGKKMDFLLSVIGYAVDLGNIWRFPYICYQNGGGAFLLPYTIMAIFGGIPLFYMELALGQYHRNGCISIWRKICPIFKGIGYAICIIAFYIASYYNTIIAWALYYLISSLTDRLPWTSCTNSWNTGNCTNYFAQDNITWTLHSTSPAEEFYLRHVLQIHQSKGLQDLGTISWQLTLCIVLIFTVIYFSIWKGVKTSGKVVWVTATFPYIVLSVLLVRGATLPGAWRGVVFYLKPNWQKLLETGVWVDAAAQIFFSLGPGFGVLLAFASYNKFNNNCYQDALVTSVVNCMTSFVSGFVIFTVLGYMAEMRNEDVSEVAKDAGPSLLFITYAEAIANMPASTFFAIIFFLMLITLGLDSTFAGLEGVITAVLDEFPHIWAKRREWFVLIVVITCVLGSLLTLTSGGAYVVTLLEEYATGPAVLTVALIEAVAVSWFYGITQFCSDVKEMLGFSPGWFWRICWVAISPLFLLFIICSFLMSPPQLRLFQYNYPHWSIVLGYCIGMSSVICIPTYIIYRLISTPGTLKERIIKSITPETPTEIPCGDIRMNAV

IC50 [1] [µM] | IC50 (cloned 5-HT1A receptors [2]) [µM] | IC50 (cloned 5-HT1A receptors [3]) [µM] | Compound
< 0.02 | < 7 | – | Cc1cc(C)c(C#N)c(SCCN2CCN(c3cccc4[nH]ccc34)CC2)n1 [Compound 1a, 2-{2-[4-(1H-Indol-4-yl)piperazin-1-yl]ethylsulfanyl}-4,6-dimethylnicotinonitrile]
< 0.02 | < 7 | < 0.05 | Cc1ccc(C#N)c(SCCN2CCN(c3cccc4[nH]ccc34)CC2)n1 [Compound 1d, 2-{2-[4-(1H-Indol-4-yl)piperazin-1-yl]ethylsulfanyl}-6-methylnicotinonitrile]
< 0.02 | < 7 | – | Cc1cc(C)c(C#N)c(SCCCN2CCN(c3cccc4[nH]ccc34)CC2)n1 [Compound 1l, 2-{3-[4-(1H-Indol-4-yl)piperazin-1-yl]propylsulfanyl}-4,6-dimethylnicotinonitrile]
< 0.02 | < 7 | < 0.05 | N#Cc1cccnc1SCCN1CCN(c2cccc3[nH]ccc23)CC1 [Compound 2b, 2-{2-[4-(1H-Indol-4-yl)piperazin-1-yl]ethylsulfanyl}nicotinonitrile]
< 0.02 | < 7 | < 0.05 | N#Cc1c(C(F)(F)F)cc(C2CC2)nc1SCCN1CCN(c2cccc3[nH]ccc23)CC1 [Compound 2e, 2-{2-[4-(1H-Indol-4-yl)piperazin-1-yl]ethylsulfanyl}-4-trifluoromethyl-6-cyclopropylnicotinonitrile]
< 0.02 | – | < 0.05 | Cc1cc(C)nc(SCCN2CCN(c3cccc4[nH]ccc34)CC2)n1 [Compound 2o, 4,6-Dimethyl-2-{2-[4-(1H-indol-4-yl)piperazin-1-yl]ethylsulfanyl}pyrimidine]
